Measured values from article PMC12888861, “Antibacterial activity of enmetazobactam against Acinetobacter spp.: a molecular dissection of mechanism of action and resistance determinants” (Antimicrobial Agents and Chemotherapy, 2025).
Where two headings read alike, the source gives them in different places.

Test system: A. non-baumannii isolates (n = 87)
Assay: MIC, broth microdilution (EUCAST), A. non-baumannii isolates
Format: cell-based, Acinetobacter spp. (non-baumannii)
Conditions: for MIC: in combinations ETZ fixed at 8 mg/L
Excerpt: The bacterial strains used in this study comprised 208 clinical isolates from the Spanish National Acinetobacter spp. 2020 Multicenter Collection, which was previously characterized in detail by our research group, including whole-genome sequencing, phylogenetics studies, clonal dynamics, and resistance mechanisms ([2], [29]). Additionally, a collection of A. baumannii ATCC 17978 transformants coding the blaOXA-23, blaOXA-24/40, blaOXA-51, blaOXA-58, blaOXA-143, and blaOXA-201 genes, previously constructed and described by our group ([30]), was used to determine the activity of enmetazobactam against strains carrying the main CHDLs of A. baumannii.
The antimicrobial susceptibility of the 208 Acinetobacter spp. isolates was assessed using the broth microdilution method, as described in the European Committee on Antimicrobial Susceptibility Testing (EUCAST) v.15 guidelines (http://www.eucast.org/clinical_breakpoints). […] MICs for enmetazobactam alone were assessed as well. […] Subsequently, MIC testing was also conducted with a collection of A. baumannii ATCC 17978 transformants expressing clinically relevant OXA-like carbapenemase genes.
The A. baumannii ATCC 19606 strain was used as the reference strain in all susceptibility experiments, in duplicate assays. Antibiotics were purchased from Sigma-Aldrich, except enmetazobactam and durlobactam, which were obtained from Advanz Pharma and MedChemExpress, respectively.

[1] = Acinetobacter, A. non-baumannii isolates (n=87), ETZ fixed 8 mg/L in combinations
[2] = […], ETZ fixed 8 mg/L in combinations

`CO/N=C(\C(=O)N[C@@H]1C(=O)N2C(C(=O)[O-])=C(C[N+]3(C)CCCC3)CS[C@H]12)c1csc(N)n1` [cefepime] was tested, and the “MIC distribution 0.12” value was 1.1, the MIC (Acinetobacter baylyi, isolate NO-Ab27, Acinetobacter baylyi, read-out: MIC) was 0.5 µg/mL and the MIC (Acinetobacter beijerinckii, isolate NO-Ab122, Acinetobacter beijerinckii, read-out: MIC) was 2 µg/mL. The MIC (Acinetobacter bereziniae, isolate NO-Ab70, Acinetobacter bereziniae, read-out: MIC) was 1 µg/mL, the MIC (Acinetobacter bereziniae, isolate NO-Ab84, Acinetobacter bereziniae, read-out: MIC) was 1 µg/mL and the MIC (Acinetobacter bereziniae, isolate NO-Ab104, Acinetobacter bereziniae, read-out: MIC) was 0.5 µg/mL. The MIC (Acinetobacter bereziniae, isolate NO-Ab114, Acinetobacter bereziniae, read-out: MIC) was 1 µg/mL, the MIC (Acinetobacter bereziniae, isolate NO-Ab115, Acinetobacter bereziniae, read-out: MIC) was 1 µg/mL and the MIC (Acinetobacter bereziniae, isolate NO-Ab116, Acinetobacter bereziniae, read-out: MIC) was 1 µg/mL. It also gave an MIC (Acinetobacter bereziniae, isolate NO-Ab117, Acinetobacter bereziniae, read-out: MIC) of 4 µg/mL, an MIC (Acinetobacter bereziniae, isolate NO-Ab129, Acinetobacter bereziniae, read-out: MIC) of 1 µg/mL and an MIC (Acinetobacter bereziniae, isolate NO-Ab156, Acinetobacter bereziniae, read-out: MIC) of 1 µg/mL. For the same molecule, the MIC (Acinetobacter calcoaceticus, isolate NO-Ab85, Acinetobacter calcoaceticus, read-out: MIC) was 4 µg/mL, the MIC (Acinetobacter calcoaceticus, isolate NO-Ab94, Acinetobacter calcoaceticus, read-out: MIC) was 2 µg/mL and the MIC (Acinetobacter calcoaceticus, isolate NO-Ab108, Acinetobacter calcoaceticus, read-out: MIC) was 4 µg/mL. The MIC (Acinetobacter calcoaceticus, isolate NO-Ab161, Acinetobacter calcoaceticus, read-out: MIC) was 4 µg/mL, the MIC (Acinetobacter calcoaceticus, isolate NO-Ab198, Acinetobacter calcoaceticus, read-out: MIC) was 4 µg/mL and the MIC (Acinetobacter calcoaceticus, isolate NO-Ab205, Acinetobacter calcoaceticus, read-out: MIC) was 4 µg/mL. The MIC (Acinetobacter calcoaceticus, isolate NO-Ab211, Acinetobacter calcoaceticus, read-out: MIC) was 2 µg/mL, the MIC (Acinetobacter courvalinii, isolate NO-Ab216, Acinetobacter courvalinii, read-out: MIC) was 1 µg/mL and the MIC (Acinetobacter dispersus, isolate NO-Ab2, Acinetobacter dispersus, read-out: MIC) was 0.5 µg/mL. It also gave an MIC (Acinetobacter guillouiae, isolate NO-Ab69, Acinetobacter guillouiae, read-out: MIC) of 2 µg/mL, an MIC (Acinetobacter guillouiae, isolate NO-Ab74, Acinetobacter guillouiae, read-out: MIC) of 2 µg/mL and an MIC (Acinetobacter haemolyticus, isolate NO-Ab92, Acinetobacter haemolyticus) of 2 µg/mL. For the same molecule, the MIC (Acinetobacter haemolyticus, isolate NO-Ab177, Acinetobacter haemolyticus) was 1 µg/mL, the MIC (Acinetobacter haemolyticus, isolate NO-Ab217, Acinetobacter haemolyticus) was 2 µg/mL and the MIC (Acinetobacter johnsonii, isolate NO-Ab101, Acinetobacter johnsonii, read-out: MIC) was 4 µg/mL. For the same molecule, the MIC (Acinetobacter junii, isolate NO-Ab76, Acinetobacter junii, read-out: MIC) was 0.5 µg/mL, the MIC (Acinetobacter junii, isolate NO-Ab77, Acinetobacter junii, OXA-24/40, read-out: MIC) was 1 µg/mL and the MIC (Acinetobacter lactucae, isolate NO-Ab60, Acinetobacter dijkshoorniae, read-out: MIC) was 2 µg/mL. For the same molecule, the MIC (Acinetobacter lactucae, isolate NO-Ab63, Acinetobacter dijkshoorniae, read-out: MIC) was 2 µg/mL, the MIC (Acinetobacter lactucae, isolate NO-Ab65, Acinetobacter dijkshoorniae, read-out: MIC) was 2 µg/mL and the MIC (Acinetobacter lactucae, isolate NO-Ab86, Acinetobacter dijkshoorniae, read-out: MIC) was 1 µg/mL. For the same molecule, the MIC (Acinetobacter lactucae, isolate NO-Ab88, Acinetobacter dijkshoorniae, read-out: MIC) was 2 µg/mL, the MIC (Acinetobacter lactucae, isolate NO-Ab91, Acinetobacter dijkshoorniae, read-out: MIC) was 2 µg/mL and the MIC (Acinetobacter lactucae, isolate NO-Ab121, Acinetobacter dijkshoorniae, read-out: MIC) was 4 µg/mL. It also gave an MIC (Acinetobacter lactucae, isolate NO-Ab125, Acinetobacter dijkshoorniae, read-out: MIC) of 2 µg/mL, an MIC (Acinetobacter lactucae, isolate NO-Ab160, Acinetobacter dijkshoorniae, read-out: MIC) of 0.5 µg/mL and an MIC (Acinetobacter nosocomialis, isolate NO-Ab43, Acinetobacter nosocomialis, read-out: MIC) of 2 µg/mL. The MIC (Acinetobacter nosocomialis, isolate NO-Ab68, Acinetobacter nosocomialis, OXA-24/40, read-out: MIC) was 4 µg/mL, the MIC (Acinetobacter nosocomialis, isolate NO-Ab98, Acinetobacter nosocomialis, read-out: MIC) was 2 µg/mL and the MIC (Acinetobacter nosocomialis, isolate NO-Ab208, Acinetobacter nosocomialis, read-out: MIC) was 2 µg/mL. It also gave an MIC (Acinetobacter pittii, isolate NO-Ab59, Acinetobacter pittii, read-out: MIC) of 2 µg/mL, an MIC (Acinetobacter pittii, isolate NO-Ab66, Acinetobacter pittii, read-out: MIC) of 8 µg/mL and an MIC (Acinetobacter pittii, isolate NO-Ab73, Acinetobacter pittii, read-out: MIC) of 2 µg/mL. The MIC (Acinetobacter pittii, isolate NO-Ab75, Acinetobacter pittii, read-out: MIC) was 4 µg/mL, the MIC (Acinetobacter pittii, isolate NO-Ab78, Acinetobacter pittii, read-out: MIC) was 1 µg/mL and the MIC (Acinetobacter pittii, isolate NO-Ab82, Acinetobacter pittii, read-out: MIC) was 1 µg/mL. The MIC (Acinetobacter pittii, isolate NO-Ab89, Acinetobacter pittii, read-out: MIC) was 1 µg/mL, the MIC (Acinetobacter pittii, isolate NO-Ab90, Acinetobacter pittii, read-out: MIC) was 1 µg/mL and the MIC (Acinetobacter pittii, isolate NO-Ab97, Acinetobacter pittii, read-out: MIC) was 4 µg/mL. It also gave an MIC (Acinetobacter pittii, isolate NO-Ab105, Acinetobacter pittii, read-out: MIC) of 1 µg/mL, an MIC (Acinetobacter pittii, isolate NO-Ab106, Acinetobacter pittii, read-out: MIC) of 1 µg/mL and an MIC (Acinetobacter pittii, isolate NO-Ab107, Acinetobacter pittii, read-out: MIC) of 0.5 µg/mL. It also gave an MIC (Acinetobacter pittii, isolate NO-Ab111, Acinetobacter pittii, read-out: MIC) of 1 µg/mL, an MIC (Acinetobacter pittii, isolate NO-Ab113, Acinetobacter pittii, read-out: MIC) of 2 µg/mL and an MIC (Acinetobacter pittii, isolate NO-Ab118, Acinetobacter pittii, read-out: MIC) of 2 µg/mL. It also gave an MIC (Acinetobacter pittii, isolate NO-Ab135, Acinetobacter pittii, read-out: MIC) of 1 µg/mL, an MIC (Acinetobacter pittii, isolate NO-Ab145, Acinetobacter pittii, read-out: MIC) of 2 µg/mL and an MIC (Acinetobacter pittii, isolate NO-Ab151, Acinetobacter pittii, read-out: MIC) of 2 µg/mL. For the same molecule, the MIC (Acinetobacter pittii, isolate NO-Ab154, Acinetobacter pittii, read-out: MIC) was 1 µg/mL, the MIC (Acinetobacter pittii, isolate NO-Ab157, Acinetobacter pittii, read-out: MIC) was 4 µg/mL and the MIC (Acinetobacter pittii, isolate NO-Ab162, Acinetobacter pittii, read-out: MIC) was 8 µg/mL. It also gave an MIC (Acinetobacter pittii, isolate NO-Ab164, Acinetobacter pittii, read-out: MIC) of 1 µg/mL, an MIC (Acinetobacter pittii, isolate NO-Ab178, Acinetobacter pittii, read-out: MIC) of 4 µg/mL and an MIC (Acinetobacter pittii, isolate NO-Ab197, Acinetobacter pittii, read-out: MIC) of 2 µg/mL. The MIC (Acinetobacter proteolyticus, isolate NO-Ab99, Acinetobacter proteolyticus, read-out: MIC) was 4 µg/mL, the MIC (Acinetobacter proteolyticus, isolate NO-Ab102, Acinetobacter proteolyticus, read-out: MIC) was 4 µg/mL and the MIC (Acinetobacter proteolyticus, isolate NO-Ab210, Acinetobacter proteolyticus, read-out: MIC) was 1 µg/mL. It also gave an MIC (Acinetobacter radioresistens, isolate NO-Ab175, Acinetobacter radioresistens, read-out: MIC) of 0.25 µg/mL, an MIC (Acinetobacter radioresistens, isolate NO-Ab215, Acinetobacter radioresistens, read-out: MIC) of 0.12 µg/mL and an MIC (Acinetobacter ursingii, isolate NO-Ab3, Acinetobacter ursingii, read-out: MIC) of 0.25 µg/mL. The MIC (Acinetobacter ursingii, isolate NO-Ab64, Acinetobacter ursingii, read-out: MIC) was 1 µg/mL, the MIC (Acinetobacter ursingii, isolate NO-Ab87, Acinetobacter ursingii, read-out: MIC) was 0.25 µg/mL and the MIC (Acinetobacter ursingii, isolate NO-Ab103, Acinetobacter ursingii, read-out: MIC) was 2 µg/mL. It also gave an MIC (Acinetobacter ursingii, isolate NO-Ab119, Acinetobacter ursingii, read-out: MIC) of 8 µg/mL, an MIC (Acinetobacter ursingii, isolate NO-Ab120, Acinetobacter ursingii, read-out: MIC) of 4 µg/mL and an MIC (Acinetobacter ursingii, isolate NO-Ab123, Acinetobacter ursingii, read-out: MIC) of 2 µg/mL. It also gave an MIC (Acinetobacter ursingii, isolate NO-Ab126, Acinetobacter ursingii, read-out: MIC) of 4 µg/mL, an MIC (Acinetobacter ursingii, isolate NO-Ab147, Acinetobacter ursingii, read-out: MIC) of 2 µg/mL and an MIC (Acinetobacter ursingii, isolate NO-Ab155, Acinetobacter ursingii, read-out: MIC) of 4 µg/mL. The MIC (Acinetobacter ursingii, isolate NO-Ab165, Acinetobacter ursingii, read-out: MIC) was 2 µg/mL, the MIC (Acinetobacter ursingii, isolate NO-Ab166, Acinetobacter ursingii, read-out: MIC) was 1 µg/mL and the MIC (Acinetobacter ursingii, isolate NO-Ab214, Acinetobacter ursingii, read-out: MIC) was 4 µg/mL. For the same molecule, the MIC (Acinetobacter ursingii, isolate NO-Ab221, Acinetobacter ursingii, read-out: MIC) was 4 µg/mL, the MIC (Acinetobacter ursingii, isolate NO-Ab222, Acinetobacter ursingii, read-out: MIC) was 1 µg/mL and the MIC (Acinetobacter, isolate NO-Ab146, Acinetobacter iwoffii, read-out: MIC) was 2 µg/mL. The MIC (Acinetobacter, isolate NO-Ab159, Acinetobacter iwoffii, read-out: MIC) was 0.5 µg/mL, the MIC50 [1] was 2 µg/mL and the MIC90 [1] was 4 µg/mL. The “MIC distribution 0.25” value [2] was 4.6, the “MIC distribution 0.5” value [2] was 12.6 and the “MIC distribution 1” value [2] was 41.4. For the same molecule, the “MIC distribution 2” value [2] was 73.6, the “MIC distribution 4” value [2] was 96.6 and the “MIC distribution 8” value [2] was 98.9. For the same molecule, the “MIC distribution 16” value [2] was 100, the “MIC distribution 32” value [2] was 100 and the “MIC distribution ≤0.06” value [2] was 0.
